According to patent publication EP4813381A1, “PHARMACEUTICAL USE OF GUAIANE SESQUITERPENE DERIVATIVE” (Nanjing University Of Chinese Medicine, priority 2023, dated 2025):

Experiments:
[1] = Conversion rate of salt-form prodrugs to parent compound in HEPES buffer solution; type: physicochemical; conditions: conversion to Compound 1, HEPES buffer pH 7.4, 37 °C
Procedure: Adjust the pH to 7.4 using 0.5 M NaOH, then dilute to a final volume 100 mL with distilled water.
(§1) Sample Analysis: Dissolve 0.6 mg of the compound in 250 µl of deionized water separately. Add 250 µl of mouse serum or HEPES 7.4 solution to the sample, incubate at a constant temperature of 37 °C, and collect samples at different time points. Pipette 20 µl of the sample to an EP tube, add 60 µl of methanol, vortex to mix thoroughly, and centrifuge at 12,000 rpm at 4 °C for 10 min. At 1 h, 2 h, 4 h, 8 h, and 12 h respectively, collect the supernatant for HPLC analysis. Inject 10 µL of sample and record the corresponding peak areas.

[2] = Conversion rate of salt-form prodrugs to parent compound in mouse plasma; type: in vitro ADME; conditions: conversion to Compound 1, mouse plasma, 37 °C
Procedure: Pharmaceutically acceptable salts of guaiane-type sesquiterpene lactone derivatives were selected and evaluated for their conversion rates to Compound 1 and Compound 83 in plasma and HEPES buffer, with results shown in Tables 2-1, 2-2, 3-1, and 3-2.
Plasma Preparation: Collect mouse plasma into an EP tube pre-loaded with sodium heparin, centrifuge at 8000 rpm for 10 minutes at 4°C, and then collect the supernatant.
as §1, with “areas. Chromatographic conditions: Hanbang C18 column (4.6 × 250 mm, 5 µm); mobile phase: acetonitrile: […] ammonium formate solution = 60:40; flow rate 1.0 mL/min; detection wavelength 210 nm; column temperature 30 °C. [drawing 171] Table 2-1. Conversion Rate of Compounds 20-42 to Compound 1 at Different Time Points in HEPES Buffer Solution” for “areas.”

| SMILES | Release rate ([1]; 1 h) [%] | Release rate ([1]; 2 h) [%] | Release rate ([1]; 4 h) [%] | Release rate ([1]; 8 h) [%] | Release rate ([1]; 12 h) [%] | Release rate ([2]; 1 h) [%] | Release rate ([2]; 2 h) [%] | Release rate ([2]; 4 h) [%] | Release rate ([2]; 8 h) [%] | Release rate ([2]; 12 h) [%] |
| --- | --- | --- | --- | --- | --- | --- | --- | --- | --- | --- |
| C[C@@]12CC[C@@H]3[C@H](OC(=O)[C@H]3CN3CCCC3)[C@@H]3[C@]1(CC[C@@]3(C)O)C2 [compound 22] | 6.4 | 14.8 | 26.6 | 41.3 | 53.7 |  |  |  |  |  |
| CCOC(=O)[C@@H]1CCCN1C[C@@H]1C(=O)O[C@H]2[C@H]1CC[C@@]1(C)C[C@]13CC[C@@](C)(O)[C@H]23 [compound 23] | 6.2 | 14.3 | 26.8 | 41.1 | 52.8 | 7.2 | 14.3 | 26.8 | 45.1 | 52.8 |
| C[C@@]12CC[C@@H]3[C@H](OC(=O)[C@H]3CN3CCCCC3)[C@@H]3[C@]1(CC[C@@]3(C)O)C2 [compound 24] | 6.8 | 15.1 | 26.7 | 42.8 | 54.0 | 7.7 | 17.1 | 27.7 | 47.8 | 57.9 |
| C[C@@]12CC[C@@H]3[C@H](OC(=O)[C@H]3CN3CCOCC3)[C@@H]3[C@]1(CC[C@@]3(C)O)C2 [compound 25] | 6.8 | 14.1 | 26.1 | 42.8 | 51.8 | 6.8 | 14.1 | 25.7 | 43.8 | 51.8 |
| C[C@@]12CC[C@@H]3[C@H](OC(=O)[C@H]3CN3CCNCC3)[C@@H]3[C@]1(CC[C@@]3(C)O)C2 [compound 26] | 6.8 | 16.1 | 27.3 | 43.5 | 55.6 |  |  |  |  |  |
| CCN1CCN(C[C@@H]2C(=O)O[C@H]3[C@H]2CC[C@@]2(C)C[C@]24CC[C@@](C)(O)[C@H]34)CC1 [compound 27] |  |  |  |  |  | 7.9 | 17.4 | 28.4 | 48.2 | 59.1 |
| CCN(CC)C[C@@H]1C(=O)O[C@H]2[C@H]1CC[C@@]1(C)C[C@]13CC[C@@](C)(O)[C@H]23 [compound 28] | 6.8 | 14.5 | 24.4 | 40.4 | 50.0 | 6.8 | 14.5 | 24.4 | 40.4 | 49.1 |
| CCCN(CCC)C[C@@H]1C(=O)O[C@H]2[C@H]1CC[C@@]1(C)C[C@]13CC[C@@](C)(O)[C@H]23 [compound 29] | 6.8 | 14.2 | 24.6 | 40.2 | 49.8 | 6.8 | 14.2 | 24.6 | 40.2 | 49.0 |
| CCCCN(CCCC)C[C@@H]1C(=O)O[C@H]2[C@H]1CC[C@@]1(C)C[C@]13CC[C@@](C)(O)[C@H]23 [compound 30] | 6.6 | 14.6 | 23.8 | 40.8 | 49.8 | 6.6 | 13.6 | 23.8 | 40.8 | 48.8 |
| CC(C)N(C[C@@H]1C(=O)O[C@H]2[C@H]1CC[C@@]1(C)C[C@]13CC[C@@](C)(O)[C@H]23)C(C)C [compound 31] | 6.7 | 14.0 | 23.0 | 41.2 | 49.5 | 6.5 | 13.9 | 24.4 | 40.2 | 48.5 |
| C[C@@]12CC[C@@H]3[C@H](OC(=O)[C@H]3CN3CC4CCCC4C3)[C@@H]3[C@]1(CC[C@@]3(C)O)C2 (stereo partly drawn) [compound 32] | 6.9 | 15.4 | 26.2 | 42.2 | 51.2 | 6.3 | 14.4 | 25.2 | 43.2 | 51.4 |
| C[C@@]12CC[C@@H]3[C@H](OC(=O)[C@H]3CN3CCC3)[C@@H]3[C@]1(CC[C@@]3(C)O)C2 [compound 33] | 6.9 | 15.8 | 26.0 | 41.8 | 51.1 | 6.9 | 14.8 | 26.0 | 42.8 | 50.7 |
| C[C@@]12CC[C@@H]3[C@H](OC(=O)[C@H]3CN3CCC4(CCCC4)CC3)[C@@H]3[C@]1(CC[C@@]3(C)O)C2 [compound 34] | 7.0 | 16.2 | 27.6 | 43.6 | 54.4 | 7.8 | 17.2 | 28.6 | 47.6 | 58.8 |
| C[C@@]12CC[C@@H]3[C@H](OC(=O)[C@H]3CN3CCC(N4CCCCC4)CC3)[C@@H]3[C@]1(CC[C@@]3(C)O)C2 [compound 35] | 6.8 | 14.6 | 26.4 | 43.8 | 52.5 | 6.8 | 13.6 | 26.4 | 44.8 | 52.5 |
| C[C@@]12CC[C@@H]3[C@H](OC(=O)[C@H]3CN3CCC(N4CCOCC4)CC3)[C@@H]3[C@]1(CC[C@@]3(C)O)C2 [compound 36] | 6.9 | 14.8 | 26.0 | 43.6 | 52.4 | 6.6 | 14.8 | 26.0 | 43.6 | 52.1 |
| C[C@@]12CC[C@@H]3[C@H](OC(=O)[C@H]3CN3CCC4(CC3)CC4)[C@@H]3[C@]1(CC[C@@]3(C)O)C2 [compound 37] | 7.2 | 16.8 | 28.3 | 44.1 | 65.8 | 8.2 | 17.8 | 29.3 | 48.1 | 67.8 |
| C[C@@]12CC[C@@H]3[C@H](OC(=O)[C@H]3CN3CCCCCCC3)[C@@H]3[C@]1(CC[C@@]3(C)O)C2 [compound 38] | 6.9 | 14.8 | 25.4 | 41.4 | 50.7 | 6.1 | 14.5 | 25.4 | 41.4 | 49.7 |
| CN(C)C[C@@H]1C(=O)O[C@H]2[C@H]1CC[C@@]1(C)C[C@]13CC[C@@](C)(O)[C@H]23 [compound 39] | 6.6 | 15.0 |  | 42.7 | 54.3 | 6.6 | 14.0 |  | 43.6 | 52.8 |
| CN(C)C[C@@H]1C(=O)O[C@H]2[C@H]1CC[C@@]1(C)C[C@]13CC[C@@](C)(O)[C@H]23 [compound 40] | 6.8 | 14.6 |  | 44.0 | 50.2 | 6.7 | 14.2 |  | 44.0 | 52.6 |
